The values below come from patent publication US20040260318A1, “Anastomotic connector devices” (Angiotech International AG, priority 2003, published 2004).

In general, IC50 refers to the midpoint of a concentration-inhibition curve. Read a low IC50 as inhibition by little substance.

Series [1] relates to Primary human smooth muscle cells. Kind of series: Screening assay for smooth muscle cell migration (Boyden chamber, rhPDGF-BB chemotaxis). Type of series: cell-based. The conditions noted are these: 4 hours migration toward rhPDGF-BB 10 ng/mL, FIG. 8.
Experimental: Primary human smooth muscle cells are starved of serum in smooth muscle cell basal media containing insulin and human basic fibroblast growth factor (bFGF) for 16 hours prior to the assay. […] A 100 μL volume of smooth muscle cells (approximately 20,000-25,000 cells) is added to the top of a Boyden chamber assembly (Chemicon QCM Chemotaxis 96-well migration plate). To the bottom wells, the chemotactic agent, recombinant human platelet derived growth factor (rhPDGF-BB) is added at a concentration of 10 ng/mL in a total volume of 150 μL. Paclitaxel is prepared in DMSO at a concentration of 10^−2 M and serially diluted 10-fold to give a range of stock concentrations (10^−8 M to 10^−2 M). Paclitaxel is added to cells by directly adding paclitaxel DMSO stock solutions, prepared earlier, at a 1/1000 dilution, to the cells in the top chamber. […]
At the end of the 4 hour period, cells in the top chamber are discarded and the smooth muscle cells attached to the underside of the filter are detached for 30 minutes at 37° C. in Cell Detachment Solution (Chemicon). […] Relative fluorescence units from triplicate wells are averaged after subtracting background fluorescence (control chamber without chemoattractant) and average number of cells migrating is obtained from a standard curve of smooth muscle cells serially diluted from 25,000 cells/well down to 98 cells/well.
Series [2] deals with AP-1 transcriptional activity. Put plainly: IL-1 stimulated AP-1 driven CAT reporter gene activity in chondrocytes. Type of series: cell-based. The conditions noted are these: transfected chondrocytes, concentration dependent, 10^−7 to 10^−5 M. (In general: In a reporter assay the amount or activity of a reporter protein is the signal.)
Text: The results shown are representative of three independent experiments.
Series [3] deals with AP-1 DNA binding activity. Kind of series: IL-1 induced AP-1 DNA binding activity, gel mobility shift assay. Particulars: chondrocyte lysates, pretreated at 10^−7 to 10^−5 M for 24 hours. Type of series: cell-based.
Experimental: Binding activity was assayed with a radiolabeled human AP-1 sequence probe and gel mobility shift assay. Extracts from chondrocytes untreated or treated with various amounts of paclitaxel (10^−7 to 10^−5 M) followed by IL-1β (20 ng/ml) were incubated with excess probe on ice for 30 minutes, followed by non-denaturing gel electrophoresis. The “com” lane contains excess unlabeled AP-1 oligonucleotide.
The test system of another series is stromelysin (MMP-3) mRNA. Kind of series: IL-1 induced MMP-3 (stromelysin) mRNA expression in chondrocytes, Northern blot.
The subject of the next series is collagenase (MMP-1) mRNA. Put plainly: IL-1 induced MMP-1 (collagenase) mRNA expression in chondrocytes, Northern blot.
Series [4] concerns Chick Chorioallantoic Membrane. Put plainly: Chick chorioallantoic membrane (CAM) angiogenesis assay. The conditions noted are these: for Inhibition/n: 48 hours.
The next series in a line: Solubility in water. Type of series: physicochemical.
Setting [5] is: chondrocytes pretreated for 24 hours, IL-1 induced.

In the case of `CC(=O)O[C@H]1C(=O)[C@@]2(C)[C@H]([C@H](OC(=O)c3ccccc3)[C@]3(O)C[C@H](OC(=O)[C@H](O)[C@@H](NC(=O)c4ccccc4)c4ccccc4)C(C)=C1C3(C)C)[C@]1(OC(C)=O)CO[C@@H]1C[C@@H]2O` [paclitaxel, 5β,20-Epoxy-1,2Alpha,4,7β,10β,13Alpha-hexahydroxytax-11-en-9-one-4,10-diacetate-2-benzoate-13-(Alpha-phenylhippurate)], half-maximal inhibition in series [1] (IC50) required 0.76 nM. Besides, in series [2], the “IL-1 induced AP-1 reporter gene CAT activity” value is on record as “reduced”. In addition, the “IL-1 induced AP-1 binding activity to DNA” value in series [3] is reported as “decreased”. Besides, the “concentration inhibiting stromelysin expression in vitro” value in the series with stromelysin (MMP-3) mRNA is reported as 10^−6 M. In the series with stromelysin (MMP-3) mRNA (at 10^−5 M), the “inhibition of stromelysin mRNA expression” value is “complete inhibition”. Also, in the series on stromelysin (MMP-3) mRNA (setting [5]), the “levels of stromelysin mRNA” value is “significantly reduced”. Further, the “concentration inhibiting collagenase expression in vitro” value in the series with collagenase (MMP-1) mRNA is given as 10^−6 M. For the same compound, the “inhibition of collagenase mRNA expression” value with collagenase (MMP-1) mRNA (at 10^−5 M) is “complete inhibition”. In addition, the “levels of collagenase mRNA” value in the series on collagenase (MMP-1) mRNA (setting [5]) was “significantly reduced”. Moreover, the Inhibition/n in series [4] (0.25 ug in methylcellulose (10 ul) disk, CAMs with positive antiangiogenesis response / n) was 2/11; in series [4] (0.5 ug in methylcellulose (10 ul) disk), 6/11; in series [4] (1 ug in methylcellulose (10 ul) disk), 6/15; in series [4] (5 ug in methylcellulose (10 ul) disk), 20/27; in series [4] (10 ug in methylcellulose (10 ul) disk), 16/21; in series [4] (30 ug in methylcellulose (10 ul) disk) it was 31/31. In series [4] (48 hours after application), the “angiogenesis in the CAM” value is given as “inhibited”. Besides, the “avascular gradient scale, maximal avascular zone” value in series [4] (within 48 hours, depending on concentration) came out at 3. For the same compound, in the series “Solubility in water”, the solubility in water entry is given as “insoluble in water”.
